Experimental data taken from patent publication US20020006954A1, “Desmethyl tocopherols for preventing or slowing degenerative neurological diseases” (Oklahoma Medical Research Foundation, priority 2000, published 2002).
Where two headings read alike, the source gives them in different places.

What was measured:
[1] = test system: α-ketoglutarate dehydrogenase (αKGDH); test: Protection of αKGDH activity in rat brain mitochondria exposed to SIN-1; type: biochemical
Procedure: FIG. 5 is a graph showing rat brain mitochondria were exposed to 0.4 mM SIN-1 for 1 H after addition of tocopherol. (.) α-toc; (▪) γ-toc. The scale bars labeled [α]norm and [γ]norm indicate the normal endogenous quantities of α-toc and γ-toc, respectively, in human brain.
Mitochondria were isolated from adult rat brain then sonicated briefly in the presence of either αT or γT, or an ethanol vehicle. Mitochondria were then exposed to SIN-1, which generates NO and superoxide simultaneously at a known rate (7). Combination of NO and superoxide yields ONOO^− in situ (discussed above). Enzyme activity is destroyed by peroxynitrite and superoxide but not by NO (19).

occlusive thrombus = conditions: rats, cited from earlier work; for delay of time to occlusive thrombus: 29% FeCl3 patch on abdominal aorta
[2] = cited from earlier work; for increase of own plasma tocopherol level above baseline: rats, 100 mg/kg/day for 10 days
[3] = test system: Primary cortical rat neurons; test: Neurotoxicity assay, cortical neurons exposed to SNP, LDH release; type: cell-based; conditions: SNP 10 μM, 24 hours
Procedure: Cerebrocortical neurons were exposed to the indicated concentration of SNP for 24 hours. Viability was assessed by release of lactate dehydrogenase (LDH) by nonviable cells.
γ-Tocopherol was further assessed for protective ability in a neurotoxicity assay where nitrative stress was imposed. […] Media was removed and cells were then washed and medium was replaced with fresh, tocopherol-free medium.

[4] = cited from earlier work; for effect of αT supplementation on systemic γT: oral supplementation
Alzheimer's Disease = conditions: one clinical study; cited from earlier work
[5] = liposomes exposed to ONOO−; cited from earlier work
superoxide dismutase = conditions: rats; cited from earlier work
systemic lipid oxidation = conditions: rats fed tocopherol two weeks after iron-dextran; cited from earlier work
platelet aggregation = conditions: rats, 100 mg/kg/day for 10 days; cited from earlier work
C3H/10T½ fibroblasts = conditions: methylcholanthrene-treated C3H/10T½ fibroblasts; cited from earlier work
endothelial cells = conditions: cited from earlier work
[6] = rat brain mitochondria, 400 μM SIN-1, 1 h

## Nc1c[n+](N2CCOCC2)no1 [SIN-1, reference compound]
[1]; 400 μM SIN-1, one hour, rat brain mitochondria
  decrease of αKGDH activity: approximately 50%

## Cc1c(C)c2c(c(C)c1O)CC[C@@](C)(CCC[C@H](C)CCC[C@H](C)CCCC(C)C)O2 [αT, alpha tocopherol, reference compound]
Occlusive thrombus; 100 mg/kg/day for 10 days
  delay of time to occlusive thrombus: 25%
[2]
  increase of own plasma tocopherol level above baseline: 2 fold
[3]; 10 μM tocopherol
  protection of neurons from SNP toxicity (LDH release): ineffective
[4]; in vivo
  absorption by the gut: absorbed equally well
[4]
  effect of αT supplementation on systemic γT: decreases systemic γT concentration
[4]; listed as α-tocopherol
  effect of αT supplementation on systemic γT: depletes the human body of γ-tocopherol
Alzheimer's Disease
  effect on progression of Alzheimer's Disease: decreases the progression of Alzheimer's Disease (AD) marginally
[1]; 400 μM SIN-1
  concentration offering as much protection as 50-100 nM of γT: 1 to 10 µM
[1]; [6]
  tocopherol concentration of maximal protection of αKGDH: about 1 μM

## Cc1c(O)cc2c(c1C)O[C@](C)(CCC[C@H](C)CCC[C@H](C)CCCC(C)C)CC2 [γT, gamma tocopherol]
[5]
  inhibition of lipid hydroperoxide formation relative to αT: twice as effective
Superoxide dismutase
  superoxide dismutase activity in aortas compared to the αT treated group: increased significantly
Occlusive thrombus; 100 mg/kg/day for 10 days
  delay of time to occlusive thrombus: 65%
  inhibition of iron-induced lipid peroxidation and occlusive thrombus: significantly more effective than αT supplementation
Occlusive thrombus
  potency relative to αT at inhibition of thrombogenic correlates, referred to plasma tocopherol concentrations: 20-30 times
Systemic lipid oxidation
  effectiveness at inhibiting systemic lipid oxidation relative to αT: approximately 35%
[2]
  increase of own plasma tocopherol level above baseline: 6 fold
[2]; γT supplemented rats
  plasma γT concentration as percent of the γT concentration (so in the source): ≤ 10%
[3]; 200 nM tocopherol
  protection of neurons from SNP toxicity (LDH release): significantly protected
[4]; in vivo
  absorption by the gut: absorbed equally well
  packaging into lipoproteins: less effectively than αT
Platelet aggregation
  inhibition of platelet aggregation kinetics relative to αT supplementation: 2 fold
C3H/10T½ fibroblasts
  inhibition of neoplastic transformation relative to αT: 4 fold
Endothelial cells
  incorporation into endothelial cells: more rapidly than is αT
[1]; 400 μM SIN-1
  concentration offering as much protection as 1-10 μM of αT: 50 to 100 nM
[1]; at all concentrations tested
  protection of αKGDH in side-by-side comparison: more protective than αT
[1]; concentrations near 100 nM, 400 μM SIN-1
  protection of αKGDH relative to the corresponding concentration of αT: approximately 5 times
[1]; [6]
  maximal protection of αKGDH relative to maximal protection by αT: approximately 2.5 times
  tocopherol concentration of maximal protection of αKGDH: about 1 μM
